# Source: patent US20020111340A1, “Aminoalkoxybiphenylcarboxamides as histamine-3 receptor ligands and their therapeutic applications” (priority 2000, published 2002)
# Target: T1, histamine-3 receptor (Rattus norvegicus, UniProt Q9QYN8)
# T1 construct: Rat cortical membranes (12 mg wet weight/tube) were incubated with; from tissue; host or cells: male Sprague-Dawley rat brain cortex membranes
# Test: Histamine-3 receptor binding, displacement of (3H)-N-α-methylhistamine from rat cortical membranes
# Conditions: male Sprague-Dawley rat brain cortical membranes; (3H)-N-α-methylhistamine ~0.6 nM; 30 minutes at 25° C.; Cheng-Prusoff
# T1 sequence (Q9QYN8 whole entry): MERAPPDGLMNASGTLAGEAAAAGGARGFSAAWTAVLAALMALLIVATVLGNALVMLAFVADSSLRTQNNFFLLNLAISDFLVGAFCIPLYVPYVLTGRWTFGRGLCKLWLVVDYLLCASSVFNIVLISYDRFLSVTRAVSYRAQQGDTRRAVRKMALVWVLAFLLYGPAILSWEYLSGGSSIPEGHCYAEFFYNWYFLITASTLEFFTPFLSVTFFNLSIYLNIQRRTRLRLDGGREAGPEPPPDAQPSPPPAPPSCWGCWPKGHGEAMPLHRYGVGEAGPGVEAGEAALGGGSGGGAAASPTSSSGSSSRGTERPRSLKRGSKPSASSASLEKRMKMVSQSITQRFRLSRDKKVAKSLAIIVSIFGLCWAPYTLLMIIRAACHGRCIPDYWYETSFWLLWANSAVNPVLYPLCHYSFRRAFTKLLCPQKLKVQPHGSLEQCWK
row,Structure (SMILES),Ki [nM]
1,"CC(C)NC(=O)c1ccc(-c2ccc(OCCCN3[C@H](C)CC[C@H]3C)cc2)cc1 [Example 1, 4′-{3-[(2R,5R)-2,5-dimethylpyrrolidinyl]propoxy}-N-isopropyl[1,1′-biphenyl]-4-carboxamide]",2.84
2,"CC1CCCN1C(=O)c1ccc(-c2ccc(OCCCN3[C@H](C)CC[C@H]3C)cc2)cc1 (stereo partly drawn) [Example 3, (2R,5R)-2,5-dimethyl-1-[3-({4′-[(2-methyl-1-pyrrolidinyl)carbonyl][1,1′-biphenyl]-4-yl}oxy)propyl]pyrrolidine]",1
3,"CC(C)NCCCOc1ccc(-c2ccc(C(=O)N3[C@H](C)CC[C@H]3C)cc2)cc1 [Example 4, 3-[(4′-{[(2R,5R)-2,5-dimethylpyrrolidinyl]carbonyl}[1,1′-biphenyl]-4-yl)oxy]-N-isopropyl-1-propanamine]",507
4,"CCN(CC)CCCOc1ccc(-c2ccc(C(=O)N3[C@H](C)CC[C@H]3C)cc2)cc1 [Example 5, 3-[(4′-{[(2R,5R)-2,5-dimethylpyrrolidinyl]carbonyl}[1,1′-biphenyl]-4-yl)oxy]-N,N-diethyl-1-propanamine]",13.8
5,"CC1CCN(CCCOc2ccc(-c3ccc(C(=O)N4[C@H](C)CC[C@H]4C)cc3)cc2)CC1 [Example 7, 1-{3-[(4′-{[(2R,5R)-2,5-dimethylpyrrolidinyl]carbonyl}[1,1′-biphenyl]-4-yl)oxy]propyl}-4-methylpiperidine]",3.66
6,"C[C@@H]1CC[C@@H](C)N1C(=O)c1ccc(-c2ccc(OCCCN3CCOCC3)cc2)cc1 [Example 8, 4-{3-[(4′-{[(2R,5R)-2,5-dimethylpyrrolidinyl]carbonyl}[1,1′-biphenyl]-4-yl)oxy]propyl}morpholine]",114
7,"CC1CCN(C(=O)c2ccc(-c3ccc(OCCCN4[C@H](C)CC[C@H]4C)cc3)cc2)CC1 [Example 9, 1-[(4′-{3-[(2R,5R)-2,5-dimethylpyrrolidinyl]propoxy}[1,1′-biphenyl]-4-yl)carbonyl]-4-methylpiperidine]",2.63
8,"C[C@H](c1ccccc1)N(C)CCCOc1ccc(-c2ccc(C(=O)N3CCCC3)cc2)cc1 [Example 11, N-methyl-N-[(1R)-1-phenylethyl]-N-(3-{[4′-(1-pyrrolidinylcarbonyl)[1,1′-biphenyl]-4-yl]oxy}propyl)amine]",363
9,"CN(CCCOc1ccc(-c2ccc(C(=O)N3CCCC3)cc2)cc1)[C@@H]1CCN(Cc2ccccc2)C1 [Example 12, N-[(3R)-1-benzylpyrrolidinyl]-N-methyl-N-(3-{[4′-(1-pyrrolidinylcarbonyl)[1,1′-biphenyl]-4-yl]oxy}propyl)amine]",384

# The next lines start with the values.
row,Ki [nM],Structure (SMILES)
1,80,"O=C(c1ccc(-c2ccc(OCCCN3CCC[C@@H]3CO)cc2)cc1)N1CCCC1 [Example 13, [(2R)-1-(3-{[4′-(1-pyrrolidinylcarbonyl)[1,1′-biphenyl]-4-yl]oxy}propyl)pyrrolidinyl]methanol]"
2,6.07,"O=C(c1ccc(-c2ccc(OCCCN3CCC[C@H]3CO)cc2)cc1)N1CCCC1 [Example 14, [(2S)-1-(3-{[4′-(1-pyrrolidinylcarbonyl)[1,1′-biphenyl]-4-yl]oxy}propyl)pyrrolidinyl]methanol]"
3,7.18,"C[C@@H]1CCC[C@H](C)N1CCCOc1ccc(-c2ccc(C(=O)N3CCCC3)cc2)cc1 [Example 15, (2R,6S)-2,6-dimethyl-1-(3-{[4′-(1-pyrrolidinylcarbonyl)[1,1′-biphenyl]-4-yl]oxy}propyl)piperidine]"
4,71.5,"O=C(c1ccc(-c2ccc(OCCCN3CCC[C@@H](O)C3)cc2)cc1)N1CCCC1 [Example 16, (3R)-1-(3-{[4′-(1-pyrrolidinylcarbonyl)[1,1′-biphenyl]-4-yl]oxy}propyl)-3-piperidinol]"
